Legend:
[1] = test system: AP-1; assay: AP-1 transcription factor reporter assay; type: cell-based, mouse; details: PACAP 100 nM, 20 hours after induction, compared to non-induced cells
Procedure: Vectors: Vector DNA containing reporter elements for AP-1 and empty cloning vector (pTAL), with a luciferace reporter were purchased from Promega. The vectors were propagated in E. coli strain JM-109 (Promega) and purified with Qiagens maxi-prep Kit (Qiagen). The concentration was diluted to approximately 1 mg/ml per vector.
Transfection: Transient transfection was performed by seeding cells as above in suspension neurosphere cell culture and adherent neurosphere cell culture (1 to 3 day incubation) using 30,000 single cells/well. Each well was transiently transfected with […] plasmid, 0.6 μg Nupherin-neuron (Biomol) and 0,6 μl of Fugene-6 (Roche). Plasmid and Nupherin was mixed and diluted in DMEM/F12 to a total volume of 50 μl/well, and were incubated for 15 minutes prior to mixing with Fugene-6 that were diluted in DMEM/F12 to a total volume of 50 μl/well. The mix of plasmid and Nupherin and Fugene-6 were incubated for 20 min. The volume was adjusted to 100 μl prior to addition of 100 μl/well of transfection reagent.
Assay: The following day the transiently transfected cells were applied with PACAP (Bachem) to final concentration of 100 nM/well, in the presence or absence of MEK inhibitor, […] (Sigma-Aldrich). Luciferace activity was analysed with steady glow (Promega) according to the instructions of the manufacturer. Cells were analysed 20 hours after induction with PACAP.

[2] = test system: primary adult NSC; assay: Culture of neurospheres for counting and photographing; type: cell-based, mouse; details: PACAP 100 nM in place of EGF, 7 days, versus control
Procedure: Anterior lateral wall of the lateral ventricle was dissociated as described in Example 2 (Method A), and the cells resuspended in Neurosphere medium without EGF. The cell suspension was divided into a 24-well plate with triplicates of control (no addition), PACAP treated and EGF (1 nM) treated cells. The final concentration of PACAP was 100 nM. After 7 days the spheres were counted and photographed using a Nikon Eclipse TE300 microscope and Nikon Spot Insight camera.

[3] = test system: subventricular zone NSC; assay: PACAP/BrdU infusion, BrdU labelling of the lateral ventricle wall; type: in vivo, mouse; details: 600 nM pump concentration, 0.5 μl/hr into the lateral ventricle, 3.5 days, relative to vehicle
Procedure: 10 week old male mice (C57B1/2), maintained on a 12 hr light/dark cycle with food and water ad libidum, were infused in the right lateral ventricle with PACAP38 (Bachem), using a Alzet pump (1007D), for 3,5 days or 7 days at a daily dose of 31 ng/day (600 nM PACAP pump concentration infused at a rate of 0.5 μl/hr). Bromodeoxyuridine (BrdU) (50 mg/ml) was also included in the infusion vehicle (0.9% saline containing 1 mg/ml mouse serum albumin (Sigma)) to enable measurement of proliferation by quantitation of BrdU incorporation in the DNA. The group of infused with either PACAP/BrdU or vehicle/BrdU for 3,5 days and sacrificed at this time point. […]
Brains were cut into 14-μm coronal sections using a cryostat-microtome. […] After 1 hour of washing, the BrdU-antibody complex was detected using 0.05% diaminobenzidine with 0.01% H2O2, and counterstained with Hematoxylin. […]
For all BrdU labelling experiments, three to six sections per animal were analysed. […] The number of BrdU-labelled cells per area of dentate granule cell layer was counted manually. […] BrdU-positive cells were counted along 2×250 micrometer strips of the lateral ventricle wall (see FIG. 18). Area measurements of both the dentate granule cell layer and the “counted” region of the lateral ventricle wall (including the ependymal cell layer and subventricular zone) were made from each slide used for the cell counts. […]

Q: Which “AP-1 expression (luciferace activity)” value [1] does the source give for “pituitary adenylate cyclase-activating polypeptide [PACAP]” here?
A: significantly induced

Q: And the “sizes and number of neurospheres” value [2]?
A: observably greater than that of the control

Q: What about the “proliferation in the subventricular zone of the lateral ventricle wall (BrdU-positive cells)” value [3] of the same substance?
A: significant increase in proliferation
